The target of experiment [1] is T1, hNav1.7 (Homo sapiens (Human), UniProt Q15858). The experiment in a line: Tritiated compound binding to membranes from cells expressing hNav1.7 and the β1 subunit, modified protocol (LBA, Ex. 243B). The settings on record: 300 pM [3H]compound, room temperature, read-out: Nav1.7 LBA (Ex. 243B) IC50.
Target sequence in this assay (Q15858 whole entry, looked up): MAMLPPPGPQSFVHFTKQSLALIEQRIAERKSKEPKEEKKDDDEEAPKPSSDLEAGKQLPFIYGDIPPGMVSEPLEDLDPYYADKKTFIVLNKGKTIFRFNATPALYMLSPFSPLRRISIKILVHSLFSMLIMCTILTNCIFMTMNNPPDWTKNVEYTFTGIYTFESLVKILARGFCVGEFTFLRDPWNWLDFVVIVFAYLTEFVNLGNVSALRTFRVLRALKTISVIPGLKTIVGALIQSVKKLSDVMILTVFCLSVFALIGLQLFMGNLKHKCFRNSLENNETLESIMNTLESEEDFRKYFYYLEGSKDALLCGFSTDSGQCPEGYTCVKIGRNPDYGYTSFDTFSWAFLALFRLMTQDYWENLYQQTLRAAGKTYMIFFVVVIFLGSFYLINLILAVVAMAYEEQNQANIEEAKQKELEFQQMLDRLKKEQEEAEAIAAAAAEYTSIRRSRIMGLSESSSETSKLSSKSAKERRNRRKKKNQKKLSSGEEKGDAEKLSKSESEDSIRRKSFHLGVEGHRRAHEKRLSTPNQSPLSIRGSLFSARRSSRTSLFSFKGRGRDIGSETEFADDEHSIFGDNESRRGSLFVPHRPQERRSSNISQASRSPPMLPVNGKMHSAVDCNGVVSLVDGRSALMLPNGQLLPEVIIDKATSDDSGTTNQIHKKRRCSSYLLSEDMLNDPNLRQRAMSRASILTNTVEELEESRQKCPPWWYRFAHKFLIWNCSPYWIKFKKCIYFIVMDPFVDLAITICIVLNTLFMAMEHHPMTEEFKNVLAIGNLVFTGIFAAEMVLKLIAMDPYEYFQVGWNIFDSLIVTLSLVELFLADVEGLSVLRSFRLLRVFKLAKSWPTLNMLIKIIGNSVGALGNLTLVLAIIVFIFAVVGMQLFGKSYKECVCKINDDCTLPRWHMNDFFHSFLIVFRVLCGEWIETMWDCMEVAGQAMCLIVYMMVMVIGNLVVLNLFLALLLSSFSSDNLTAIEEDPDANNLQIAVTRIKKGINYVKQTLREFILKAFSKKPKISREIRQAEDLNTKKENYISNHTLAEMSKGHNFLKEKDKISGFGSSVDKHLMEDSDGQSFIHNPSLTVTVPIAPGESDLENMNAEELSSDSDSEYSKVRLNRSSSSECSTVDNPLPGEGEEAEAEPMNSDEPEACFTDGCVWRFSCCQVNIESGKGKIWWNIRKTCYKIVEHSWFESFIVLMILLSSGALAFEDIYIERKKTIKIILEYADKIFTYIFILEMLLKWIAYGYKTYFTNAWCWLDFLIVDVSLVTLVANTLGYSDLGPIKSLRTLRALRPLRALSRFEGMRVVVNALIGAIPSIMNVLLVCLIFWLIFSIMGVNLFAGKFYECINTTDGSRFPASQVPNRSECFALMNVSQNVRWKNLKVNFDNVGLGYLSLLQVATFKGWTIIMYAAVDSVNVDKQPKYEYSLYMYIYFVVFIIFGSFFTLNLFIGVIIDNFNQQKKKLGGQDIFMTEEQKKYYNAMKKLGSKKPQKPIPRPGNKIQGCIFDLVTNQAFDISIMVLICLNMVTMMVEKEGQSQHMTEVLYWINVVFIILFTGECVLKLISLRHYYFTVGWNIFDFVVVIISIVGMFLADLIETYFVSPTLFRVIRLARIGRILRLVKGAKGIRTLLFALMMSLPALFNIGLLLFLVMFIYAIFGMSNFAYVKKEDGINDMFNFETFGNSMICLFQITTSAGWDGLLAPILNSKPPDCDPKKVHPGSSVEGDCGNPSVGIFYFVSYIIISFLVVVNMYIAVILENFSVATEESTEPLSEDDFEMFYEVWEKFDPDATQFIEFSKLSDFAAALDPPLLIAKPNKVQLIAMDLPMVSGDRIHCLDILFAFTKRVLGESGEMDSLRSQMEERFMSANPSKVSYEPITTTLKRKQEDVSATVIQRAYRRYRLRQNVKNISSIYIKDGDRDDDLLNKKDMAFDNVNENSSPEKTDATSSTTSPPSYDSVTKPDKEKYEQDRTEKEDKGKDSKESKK
Target sequence in this assay (Q07699 whole entry partner, looked up): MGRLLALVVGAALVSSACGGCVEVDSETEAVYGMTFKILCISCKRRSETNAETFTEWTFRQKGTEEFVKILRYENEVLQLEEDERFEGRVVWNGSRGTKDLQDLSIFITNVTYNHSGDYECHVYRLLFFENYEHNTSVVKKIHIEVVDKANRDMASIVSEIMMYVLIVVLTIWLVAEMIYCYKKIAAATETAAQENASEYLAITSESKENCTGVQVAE
The target in experiment [2] is T1, hNav1.7. Briefly: Patch voltage clamp electrophysiology assay (EP), Syncropatch 384PE, CHO cells expressing Nav1.7. The format is cell-based. The note with it: read-out: EP_SP hNav1.7 (Ex. 243B) IC50. The method, then:
Electrophysiological Assay (EP) (In Vitro Assay)
The following voltage clamp electrophysiology studies were performed on representative compounds using cells heterologously expressing Nav1.7 or Nav1.5 channels. cDNAs for Nav1.7 (NM_002977) and Nav1.5 (AC137587) were stably expressed in Chinese Hamstr Ovary (CHO) cells and CHL (Chinese Hamster Lung) cells respectively. […] Internal solution consists of (in mM): 110 […], 10 […], 20 EGTA, and 10 Hepes (pH adjusted to 7.2); and external solution contains (in mM): 60 NMDG, 80 NaCl, 4 KCl, 1 MgCl2, 2 CaCl2, 2 D-Glucose monohydrate, 10 Hepes (pH adjusted to 7.4 with NaOH).
The chip is moved into the measuring head and the instrument primes the chip with external and internal solutions. […] cells are added to the chip from a cell hotel, and a negative pressure of −50 mBar is applied to form a seal. Following treatment with seal enhancer solution and wash-off with external solution, negative pressure of −250 mbar is applied for 1 second to achieve the whole-cell configuration, followed by three washing steps in external solution. 20 μl of compounds is added to 40 μl in each well (1:3 dilution of compounds), and after mixing, 20 μl is removed so the volume is retained at 40 μl.
For voltage protocol, an holding potential of −50 mV is applied during the whole experiment. A depolarizing step is applied to −10 mV for 10 ms, followed by a hyperpolarization step to −150 mV for 20 ms to allow channel recovery from inactivation. A second depolarizing step is applied from −150 mV to −10 mV for 10 ms, where currents were measured to derive blocking effects of compounds. Inhibition is determined based on 7.5 min of compound incubation.
Target sequence in this assay (Q15858 other isoform, or with tags, fused parts or gaps): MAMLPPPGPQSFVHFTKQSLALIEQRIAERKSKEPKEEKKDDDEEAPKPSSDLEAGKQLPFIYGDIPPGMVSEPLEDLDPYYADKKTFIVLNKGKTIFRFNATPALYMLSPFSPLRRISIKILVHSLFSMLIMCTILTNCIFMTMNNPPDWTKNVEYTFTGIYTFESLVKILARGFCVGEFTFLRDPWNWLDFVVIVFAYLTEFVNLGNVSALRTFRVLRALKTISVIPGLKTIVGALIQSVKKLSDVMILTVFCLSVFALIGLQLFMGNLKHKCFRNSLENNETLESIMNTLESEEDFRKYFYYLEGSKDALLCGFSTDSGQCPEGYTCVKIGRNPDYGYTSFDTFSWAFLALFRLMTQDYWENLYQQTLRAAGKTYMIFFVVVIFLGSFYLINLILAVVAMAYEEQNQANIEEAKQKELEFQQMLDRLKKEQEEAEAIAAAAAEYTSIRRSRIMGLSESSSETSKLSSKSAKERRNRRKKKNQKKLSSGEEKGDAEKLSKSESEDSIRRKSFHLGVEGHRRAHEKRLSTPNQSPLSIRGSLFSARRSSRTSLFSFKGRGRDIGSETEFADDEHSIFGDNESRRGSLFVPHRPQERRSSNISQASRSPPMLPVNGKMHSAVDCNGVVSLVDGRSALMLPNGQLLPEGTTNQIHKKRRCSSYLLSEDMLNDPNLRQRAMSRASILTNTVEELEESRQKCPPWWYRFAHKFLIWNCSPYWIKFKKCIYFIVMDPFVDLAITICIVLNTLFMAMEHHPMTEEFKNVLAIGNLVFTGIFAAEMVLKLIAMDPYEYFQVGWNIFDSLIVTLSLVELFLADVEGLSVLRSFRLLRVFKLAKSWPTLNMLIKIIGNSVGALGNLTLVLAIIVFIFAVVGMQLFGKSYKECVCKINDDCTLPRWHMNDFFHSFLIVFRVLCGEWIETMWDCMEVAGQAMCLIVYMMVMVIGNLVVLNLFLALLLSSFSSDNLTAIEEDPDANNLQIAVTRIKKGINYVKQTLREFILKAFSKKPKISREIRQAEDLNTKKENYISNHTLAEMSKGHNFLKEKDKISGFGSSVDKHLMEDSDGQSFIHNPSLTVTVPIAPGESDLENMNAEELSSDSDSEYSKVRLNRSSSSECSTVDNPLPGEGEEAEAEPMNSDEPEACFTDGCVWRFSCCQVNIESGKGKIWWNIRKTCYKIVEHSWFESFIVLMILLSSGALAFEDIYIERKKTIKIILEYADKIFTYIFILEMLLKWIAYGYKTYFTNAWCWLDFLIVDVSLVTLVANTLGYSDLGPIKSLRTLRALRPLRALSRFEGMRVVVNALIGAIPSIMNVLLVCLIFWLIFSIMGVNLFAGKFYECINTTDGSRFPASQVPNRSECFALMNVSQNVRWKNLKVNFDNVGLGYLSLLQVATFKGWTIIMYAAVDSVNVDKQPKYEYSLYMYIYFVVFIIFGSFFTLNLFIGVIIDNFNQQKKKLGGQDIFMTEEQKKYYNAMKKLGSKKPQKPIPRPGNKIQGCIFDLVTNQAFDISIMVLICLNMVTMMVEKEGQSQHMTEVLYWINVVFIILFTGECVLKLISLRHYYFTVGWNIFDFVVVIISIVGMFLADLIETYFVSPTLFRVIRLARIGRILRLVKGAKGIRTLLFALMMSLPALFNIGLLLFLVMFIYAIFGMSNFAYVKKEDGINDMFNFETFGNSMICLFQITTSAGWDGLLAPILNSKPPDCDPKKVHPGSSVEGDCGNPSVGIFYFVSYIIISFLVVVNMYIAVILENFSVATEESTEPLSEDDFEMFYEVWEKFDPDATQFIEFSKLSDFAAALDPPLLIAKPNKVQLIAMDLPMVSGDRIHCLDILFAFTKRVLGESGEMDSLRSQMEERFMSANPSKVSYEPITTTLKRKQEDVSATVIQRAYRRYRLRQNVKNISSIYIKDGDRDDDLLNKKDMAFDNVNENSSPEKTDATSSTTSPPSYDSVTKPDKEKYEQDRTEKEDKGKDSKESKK

Setting [3] is: holding potential -50 mV, […] compound incubation.

Structures can show the parent of a compound that is named as a salt.

As to `CN(C)[C@H]1C[C@@H](c2cccc(C(F)(F)F)c2)CC[C@@H]1Oc1cc(F)c(S(=O)(=O)Nc2ccncn2)cc1Cl` [Example 238, 5-chloro-4-(((1S,2S,4S)-2-(dimethylamino)-4-(3-(trifluoromethyl)phenyl)cyclohexyl)oxy)-2-fluoro-N-(pyrimidin-4-yl)benzenesulfonamide], the results for the IC50 on hNav1.7 [1] and on hNav1.7 [2] (setting [3]) were 5.54 nM and 1.17 nM, respectively.
Taken in the same sequence, the figures for `CN(CC(O)CF)[C@H]1CCCC[C@@H]1Nc1cc(F)c(S(=O)(=O)Nc2nccs2)cc1Cl` (single isomer, unassigned) [Example 118] were 242 nM and 8.51 nM.
Consider `CN(C)[C@H]1CCC(c2ccccc2F)C[C@@H]1Nc1cc(F)c(S(=O)(=O)Nc2nccs2)cc1Cl` (stereo in doubt) [Example 174, 5-chloro-4-(((1S,2S,5S)-2-(dimethylamino)-5-(2-fluorophenyl)cyclohexyl)amino)-2-fluoro-N-(thiazol-2-yl)benzenesulfonamide], for which the concentration for half-maximal inhibition (IC50) stood at 357 nM at hNav1.7 [1] and 50.2 nM on hNav1.7 [2] (setting [3]).
Taken in the same sequence, the figures for `CN(CCO)[C@H]1CCCC[C@@H]1Nc1cc(F)c(S(=O)(=O)Nc2cccc(F)n2)cc1C1CC1` [Example 128, 5-Cyclopropyl-2-fluoro-N-(6-fluoropyridin-2-yl)-4-(((1S,2S)-2-((2-hydroxyethyl)(methyl)amino)cyclohexyl)amino)benzenesulfonamide formate] were 22.8 nM and 9.56 nM.
Taken in the same sequence, the figures for `CN(C)[C@H]1C[C@H]2C[C@H]2C[C@@H]1Nc1cc(F)c(S(=O)(=O)Nc2nccs2)cc1Cl` [Example 214, 5-Chloro-4-(((1S,3S,4S,6R)-4-(dimethylamino)bicyclo[4.1.0]heptan-3-yl)amino)-2-fluoro-N-(thiazol-2-yl)benzenesulfonamide] were 53.1 nM and 2.09 nM.
Taken in the same sequence, the figures for `CN(C1CNC1)[C@H]1C[C@@H](C(F)(F)F)CC[C@@H]1Nc1cc(F)c(S(=O)(=O)Nc2cccc(F)n2)cc1Cl` [Example 170, 4-(((1S,2S,4S)-2-(azetidin-3-yl(methyl)amino)-4-(trifluoromethyl)cyclohexyl)amino)-5-chloro-2-fluoro-N-(6-fluoropyridin-2-yl)benzenesulfonamide] were 2.92 nM and 3.68 nM.
For the compound `O=S(=O)(Nc1ccncn1)c1cc(Cl)c(N[C@H]2CCCC[C@@H]2N2CC3CC3C2)cc1F` (stereo partly drawn) [Example 151, 4-(((1S,2S)-2-(3-azabicyclo[3.1.0]hexan-3-yl)cyclohexyl)amino)-5-chloro-2-fluoro-N-(pyrimidin-4-yl)benzenesulfonamide], the results for the IC50 on hNav1.7 [1] and on hNav1.7 [2] (setting [3]) were 181 nM and 20.1 nM, respectively.
Taken in the same sequence, the figures for `O=S(=O)(Nc1cccc(F)n1)c1cc(Cl)c(N[C@@H]2CCCC[C@H]2N2CC3CC3C2)cc1F` (stereo partly drawn) [Example 106, 4-(((1R,2R)-2-(3-azabicyclo[3.1.0]hexan-3-yl)cyclohexyl)amino)-5-chloro-2-fluoro-N-(6-fluoropyridin-2-yl)benzenesulfonamide] were 670 nM and 74.9 nM.
Taken in the same sequence, the figures for `CN1CC(C(=O)N(C)[C@H]2CCCC[C@@H]2Nc2cc(F)c(S(=O)(=O)Nc3nccs3)cc2Cl)C1` [Example 179, N-((1S,2S)-2-((2-Chloro-5-fluoro-4-(N-(thiazol-2-yl)sulfamoyl)phenyl)amino)cyclohexyl)-N,1-dimethylazetidine-3-carboxamide] were 270 nM and 6.83 nM.
Taken in the same sequence, the figures for `CN(C)[C@@H]1CCCCC[C@H]1Nc1cc(F)c(S(=O)(=O)Nc2nccs2)cc1Cl` [Example 145, 5-chloro-4-(((1R,2R)-2-(dimethylamino)cycloheptyl)amino)-2-fluoro-N-(thiazol-2-yl)benzenesulfonamide formate] were 2000 nM and 395 nM.
Regarding `O=S(=O)(Nc1nccs1)c1cc(Cl)c(N[C@H]2CCCC[C@@H]2N2CCC3(CC2)CC3)cc1F` [Example 154, 4-(((1S,2S)-2-(6-Azaspiro[2.5]octan-6-yl)cyclohexyl)amino)-5-chloro-2-fluoro-N-(thiazol-2-yl)benzenesulfonamide formate], the IC50 came out at 1200 nM on hNav1.7 [1] and 101 nM at hNav1.7 [2] (setting [3]).
Taken in the same sequence, the figures for `CC1(O)CCN([C@H]2CCCC[C@@H]2Nc2cc(F)c(S(=O)(=O)Nc3nccs3)cc2Cl)CC1` [Example 150, 5-chloro-2-fluoro-4-(((1S,2S)-2-(4-hydroxy-4-methylpiperidin-1-yl)cyclohexyl)amino)-N-(thiazol-2-yl)benzenesulfonamide formate] were 1410 nM and 103 nM.
Taken in the same sequence, the figures for `CN(CCCO)[C@H]1CCCC[C@@H]1Nc1cc(F)c(S(=O)(=O)Nc2cccc(F)n2)cc1Cl` [Example 122, 5-chloro-2-fluoro-N-(6-fluoropyridin-2-yl)-4-(((1S,2S)-2-((3-hydroxypropyl)(methyl)amino)cyclohexyl)amino)benzenesulfonamide] were 205 nM and 33.6 nM.
Taken in the same sequence, the figures for `CN(C)[C@H]1C[C@H](c2cccc(C(F)(F)F)c2)CC[C@@H]1Nc1cc(F)c(S(=O)(=O)Nc2ccncn2)cc1Cl` [Example 218, 5-chloro-4-(((1S,2S,4R)-2-(dimethylamino)-4-(3-(trifluoromethyl)phenyl)-cyclohexyl)amino)-2-fluoro-N-(pyrimidin-4-yl)benzenesulfonamide] were 20.9 nM and 1.6 nM.
On to `N#C[C@H]1CCN([C@H]2CCCC[C@@H]2Nc2cc(F)c(S(=O)(=O)Nc3nccs3)cc2Cl)C1` [Example 162, 5-Chloro-4-(((1S,2S)-2-((S)-3-cyanopyrrolidin-1-yl)cyclohexyl)amino)-2-fluoro-N-(thiazol-2-yl)benzenesulfonamide formate], for which the values for the IC50 on hNav1.7 [1] and on hNav1.7 [2] (setting [3]) were 248 nM and 8.55 nM, respectively.
Taken in the same sequence, the figures for `O=S(=O)(Nc1nccs1)c1cc(Cl)c(N[C@H]2CCCC[C@@H]2N2CCCC2CO)cc1F` (stereo in doubt) [Example 133, 5-chloro-2-fluoro-4-(((1S,2S)-2-((S)-2-(hydroxymethyl)pyrrolidin-1-yl)cyclohexyl)amino)-N-(thiazol-2-yl)benzenesulfonamide] were 20.8 nM and 3.2 nM.
Taken in the same sequence, the figures for `O=S(=O)(Nc1cccc(F)n1)c1cc(Cl)c(N[C@H]2CCCC[C@@H]2N2CC3CC3C2)cc1F` (stereo partly drawn) [Example 105, 4-(((1S,2S)-2-(3-azabicyclo[3.1.0]hexan-3-yl)cyclohexyl)amino)-5-chloro-2-fluoro-N-(6-fluoropyridin-2-yl)benzenesulfonamide] were 31.3 nM and 4.5 nM.
On to `O=S(=O)(Nc1nccs1)c1cc(Cl)c(N[C@H]2CCCC[C@@H]2N2CCC[C@H]2CO)cc1F` [Example 134, 5-chloro-2-fluoro-4-(((1S,2S)-2-((S)-2-(hydroxymethyl)pyrrolidin-1-yl)cyclohexyl)amino)-N-(thiazol-2-yl)benzenesulfonamide], for which the values for the IC50 at hNav1.7 [1] and on hNav1.7 [2] (setting [3]) were 279 nM and 18.6 nM, respectively.
As to `O=S(=O)(Nc1nccs1)c1cc(Cl)c(N[C@H]2CCCC[C@@H]2N2CCC[C@H](CO)C2)cc1F` [Example 168, 5-chloro-2-fluoro-4-(((1S,2S)-2-((S)-3-(hydroxymethyl)piperidin-1-yl)cyclohexyl)amino)-N-(thiazol-2-yl)benzenesulfonamide formate], the IC50 worked out at 40 nM on hNav1.7 [1] and 5.16 nM on hNav1.7 [2] (setting [3]).
For the compound `O=S(=O)(Nc1nccs1)c1cc(Cl)c(N[C@H]2CCCC[C@@H]2N2CC3CC3C2)cc1F` (stereo partly drawn) [Example 160, 4-(((1S,2S)-2-(3-azabicyclo[3.1.0]hexan-3-yl)cyclohexyl)amino)-5-chloro-2-fluoro-N-(thiazol-2-yl)benzenesulfonamide], the IC50 at hNav1.7 [1] came out at 20.3 nM; on hNav1.7 [2], 2.27 nM.
For the compound `CN(C)[C@H]1C[C@@H](c2cccc(C(F)(F)F)c2)CC[C@@H]1Nc1cc(F)c(S(=O)(=O)Nc2nccs2)cc1Cl` [Example 129, 5-chloro-4-(((1S,2S,4S)-2-(dimethylamino)-4-(3-(trifluoromethyl)phenyl)cyclohexyl)amino)-2-fluoro-N-(thiazol-2-yl)benzenesulfonamide formate], the results for the IC50 on hNav1.7 [1] and on hNav1.7 [2] (setting [3]) were 0.255 nM and 0.372 nM, respectively.
Consider `CN1CCN([C@H]2CCCC[C@@H]2Nc2cc(F)c(S(=O)(=O)Nc3nccs3)cc2Cl)CC1` [Example 163, 5-Chloro-2-fluoro-4-(((1S,2S)-2-(4-methylpiperazin-1-yl)cyclohexyl)amino)-N-(thiazol-2-yl)benzenesulfonamide], for which the IC50 amounted to 201 nM on hNav1.7 [1] and 18.1 nM on hNav1.7 [2] (setting [3]).
In the case of `O=S(=O)(Nc1cccc(F)n1)c1cc(Cl)c(N[C@@H]2CCCC[C@H]2N2C[C@@H]3[C@@H](CO)[C@@H]3C2)cc1F` [Example 184], the figures for the half-maximal inhibitory concentration (IC50) on hNav1.7 [1] and on hNav1.7 [2] (setting [3]) were 2000 nM and 4960 nM, respectively.

What is called IC50 is the midpoint of a concentration-inhibition curve.

Source of the values: patent US10457654B2 (GENENTECH, INC., priority 2017, dated 2019).
